Measurements: BindingDB's records for PubMed 37683364 (Institute of Respiratory Health)

biological target: RAC-alpha serine/threonine-protein kinase (Homo sapiens, UniProt P31749); assay: Inhibition of AKT phosphorylation in human OVCAR-8 cells assessed as reduction in pAKT level incubated for 24 hrs by Western blot analysis
Sequence (P31749 whole entry): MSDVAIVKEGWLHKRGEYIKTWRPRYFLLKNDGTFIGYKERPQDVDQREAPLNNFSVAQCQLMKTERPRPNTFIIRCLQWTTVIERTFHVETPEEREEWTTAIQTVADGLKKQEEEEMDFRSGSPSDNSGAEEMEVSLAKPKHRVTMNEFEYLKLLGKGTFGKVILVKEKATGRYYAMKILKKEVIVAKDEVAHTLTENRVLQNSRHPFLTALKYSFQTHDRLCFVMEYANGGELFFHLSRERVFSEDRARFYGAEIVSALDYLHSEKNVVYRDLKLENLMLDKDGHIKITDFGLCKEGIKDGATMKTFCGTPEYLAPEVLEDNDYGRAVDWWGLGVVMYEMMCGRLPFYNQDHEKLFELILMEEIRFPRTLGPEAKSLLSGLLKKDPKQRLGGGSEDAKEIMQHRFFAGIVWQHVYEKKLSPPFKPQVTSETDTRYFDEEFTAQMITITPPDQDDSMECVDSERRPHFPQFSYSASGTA

Row | Compound | IC50 [µM]
1 | O=S(=O)(Nc1cncc(-c2ccc3nccc(-c4ccncc4)c3c2)c1)c1ccccc1F | 0.007
2 | O=C1NC(=O)C(Cc2ccc3nccc(-c4ccncc4)c3c2)S1 (centres undefined) | 0.04
3 | c1cc(-c2ccnc3ccc(-c4cnc5[nH]ncc5c4)cc23)ccn1 | 0.076
4 | Nc1ncc(-c2ccc3nccc(-c4ccncc4)c3c2)cc1S(N)(=O)=O | 0.049
